The text below walks through data of US12552798B2, “Substituted imidazolecarboxamide as Bruton's tyrosine kinase inhibitors” (Henan Zhiwei Biomedicine Co., Ltd., priority 2019, dated 2026).

Test [1] has as its system TMD8. The test is described as follows: Cell antiproliferative activity assay (CellTiter-Glo), TMD8. The class given is cell-based. The settings on record: read-out: Cell Growth IC50 (nM) TMD8. How it is done: (§1) Cell Antiproliferative Activity Assay
(§2) Cell antiproliferative activity was evaluated by the CellTiter-Glo (Promega, USA) assay. Make 1000× compounds solution in DMSO, add 1 μl 1000× compounds to […] growth medium to make 20× compounds. Dilute cell suspensions in growth medium to desired density and 95 μl were taken to 96-well plate. Add 5 μl 20× compounds into 96-well plate according to the plate map. Final DMSO concentration in each well was 0.1%. Then the cell was incubated at 37° C., 5% CO2 for 72 hs. Equilibrate the assay plate to room temperature before measurement. Add 20 μl of CellTiter-Glo© Reagent into each well. Mix contents for 2 minutes on an orbital shaker to induce cell lysis. Incubate at room temperature for 10 minutes to stabilize luminescent signal. Record luminescence using EnVision Multilabel Reader (PerkinElmer). Cell viability (CV %) was calculated relative to vehicle (DMSO) treated control wells using following formula: Cell viability (%)=(RLU compound−RLU blank)/(RLU control−RLU blank)*100%. The IC50 values were calculated using GraphPad Prism 6.0 software, fitting to a 4-parameter equation to generate concentration response curves. All assays were conducted with three parallel samples and three repetitions.
(In general: In ATP-based viability assays light output follows the ATP content of the culture.)

Test [2] deals with ITK (Homo sapiens (Human), UniProt Q08881). The test is described as follows: ITK kinase inhibitory assay (ELISA). The class given is biochemical. The settings on record: for IC50: ELISA, 3 μmol/L ATP; for Selectivity Ratio (BTK and ITK): ITK IC50 relative to BTK IC50. The procedure:
(§3) BTK, EGFR, BMX, or ITK Inhibitory Assay Procedure for BTK, BMX, EGFR and ITK Inhibitory Assay:
(§4) Kinase inhibitory activities of compounds were evaluated using the Enzyme-linked immunosorbent assay (ELISA). The kinase enzyme of BTK, BMX, EGFR and ITK were purchased from Carna Bioscience (Kobe, Japan). A total of 10 ng/mL antiphosphotyrosine (PY713) antibody (abcam, Cambridge Science Park, UK) was precoated in 96-well ELISA plates. The kinase enzymes in each reaction well were set to BTK (101.25 ng/mL), BMX (90 ng/mL), EGFR (90 ng/mL) or ITK (120 ng/mL) and incubated with indicated compounds in 1× reaction buffer (50 mmol/L HEPES pH 7.4, 20 mmol/L MgCl2, 0.1 mmol/L MnCl2, 1 mmol/L DTT) containing 20 μmol/L (the final concentration of substrate in ITK reaction was 30 μmol/L) substrate (NH2-ETVYSEVRK-biotin) at 25° C. for 1 h. Then, a total of 3 μmol/L ATP was added and the reaction was continued for 2 hrs. The products of reaction were transferred into 96-well ELISA plates containing antibody and incubated at 25° C. for 30 min. After incubation, the wells were washed with PBS and then incubated with horseradish peroxidase […]-conjugated streptavidin. The wells were visualized using 3,3′,5,5′-tetramethylbenzidine (TMB), and chromogenic reaction was ended with 2 mol/L H2SO4, the absorbance was read with a multimode plate reader (PerkinElmer, USA) at 450 nm. IC50 values and curve fits were obtained using Prism (GraphPad Software).
(ELISA stands for enzyme-linked immunosorbent assay.)

Test [3] concerns 293T. The test is described as follows: Cell antiproliferative activity assay (CellTiter-Glo), 293T. The test is classed as cell-based. The settings on record: 72 hs, read-out: Cell Growth IC50 (nM) 293T. The procedure:
as §1, §2

Test [4] has as its target EGFR (Homo sapiens (Human), UniProt P00533). The test is described as follows: EGFR kinase inhibitory assay (ELISA). To be noted: for Selectivity Ratio (BTK and EGFR): EGFR IC50 relative to BTK IC50; for IC50: ELISA, 3 μmol/L ATP. The test is classed as biochemical. The procedure:
as §3, §4

Test [5] has as its target BMX (Homo sapiens (Human), UniProt P51813). The test is described as follows: BMX kinase inhibitory assay (ELISA). To be noted: for Selectivity Ratio (BTK and BMX): BMX IC50 relative to BTK IC50; for IC50: ELISA, 3 μmol/L ATP. The class given is biochemical. The procedure:
as §3, §4

Test [6] addresses BTK (Homo sapiens (Human), UniProt Q06187). The test is described as follows: BTK kinase inhibitory assay (ELISA). The class given is biochemical. The settings on record: 3 μmol/L ATP. The procedure: as §3, §4

Read-outs that look alike come from different tables or passages of the source.

ITK, sequence (Q08881 whole entry): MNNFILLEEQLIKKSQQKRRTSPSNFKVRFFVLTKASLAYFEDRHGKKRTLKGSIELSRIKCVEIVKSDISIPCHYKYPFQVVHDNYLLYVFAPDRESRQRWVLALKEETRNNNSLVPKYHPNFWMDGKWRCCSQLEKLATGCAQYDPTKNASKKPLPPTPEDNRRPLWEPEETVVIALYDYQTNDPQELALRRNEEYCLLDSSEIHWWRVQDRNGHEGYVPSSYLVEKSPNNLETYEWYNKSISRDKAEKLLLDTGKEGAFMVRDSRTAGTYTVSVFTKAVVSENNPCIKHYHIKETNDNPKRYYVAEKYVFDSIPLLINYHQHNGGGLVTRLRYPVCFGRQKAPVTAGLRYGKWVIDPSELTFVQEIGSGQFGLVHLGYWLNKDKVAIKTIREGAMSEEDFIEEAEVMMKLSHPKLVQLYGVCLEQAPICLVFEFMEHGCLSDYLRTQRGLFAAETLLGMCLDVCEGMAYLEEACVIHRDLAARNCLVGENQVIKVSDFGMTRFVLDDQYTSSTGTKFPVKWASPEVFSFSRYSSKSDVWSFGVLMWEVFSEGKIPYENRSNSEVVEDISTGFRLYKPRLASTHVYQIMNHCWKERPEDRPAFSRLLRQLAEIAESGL
EGFR, sequence (P00533 25-1210): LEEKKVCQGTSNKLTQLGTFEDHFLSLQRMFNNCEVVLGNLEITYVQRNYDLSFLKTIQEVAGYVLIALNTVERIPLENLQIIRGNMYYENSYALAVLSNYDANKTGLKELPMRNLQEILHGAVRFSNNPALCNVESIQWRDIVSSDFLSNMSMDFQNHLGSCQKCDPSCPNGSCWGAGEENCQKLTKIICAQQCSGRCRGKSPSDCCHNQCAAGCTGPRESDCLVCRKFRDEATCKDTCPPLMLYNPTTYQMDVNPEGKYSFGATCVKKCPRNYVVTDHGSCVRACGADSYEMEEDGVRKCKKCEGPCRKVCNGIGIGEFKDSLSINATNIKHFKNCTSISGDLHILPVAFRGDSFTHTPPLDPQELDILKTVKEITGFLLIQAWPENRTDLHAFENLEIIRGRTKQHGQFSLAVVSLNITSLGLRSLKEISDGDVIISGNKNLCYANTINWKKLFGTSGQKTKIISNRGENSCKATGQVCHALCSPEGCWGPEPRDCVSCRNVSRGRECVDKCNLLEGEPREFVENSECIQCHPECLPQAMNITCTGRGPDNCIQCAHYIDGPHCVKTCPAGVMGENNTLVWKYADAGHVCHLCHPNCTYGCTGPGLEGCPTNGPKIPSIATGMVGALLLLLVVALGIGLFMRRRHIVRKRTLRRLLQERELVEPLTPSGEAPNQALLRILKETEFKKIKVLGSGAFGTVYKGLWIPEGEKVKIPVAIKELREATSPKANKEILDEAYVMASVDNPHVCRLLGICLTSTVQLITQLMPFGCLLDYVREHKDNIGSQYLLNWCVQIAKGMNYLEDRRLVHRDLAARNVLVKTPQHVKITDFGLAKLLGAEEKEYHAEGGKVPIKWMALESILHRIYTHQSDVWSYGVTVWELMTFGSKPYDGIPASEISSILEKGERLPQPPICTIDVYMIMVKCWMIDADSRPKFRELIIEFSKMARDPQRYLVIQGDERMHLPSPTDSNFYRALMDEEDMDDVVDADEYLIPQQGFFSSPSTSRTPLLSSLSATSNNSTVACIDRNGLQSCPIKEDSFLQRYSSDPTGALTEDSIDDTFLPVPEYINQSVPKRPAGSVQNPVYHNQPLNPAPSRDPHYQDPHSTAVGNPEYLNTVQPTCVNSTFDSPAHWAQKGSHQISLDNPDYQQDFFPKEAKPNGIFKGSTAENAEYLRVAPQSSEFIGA
BMX, sequence (P51813 whole entry): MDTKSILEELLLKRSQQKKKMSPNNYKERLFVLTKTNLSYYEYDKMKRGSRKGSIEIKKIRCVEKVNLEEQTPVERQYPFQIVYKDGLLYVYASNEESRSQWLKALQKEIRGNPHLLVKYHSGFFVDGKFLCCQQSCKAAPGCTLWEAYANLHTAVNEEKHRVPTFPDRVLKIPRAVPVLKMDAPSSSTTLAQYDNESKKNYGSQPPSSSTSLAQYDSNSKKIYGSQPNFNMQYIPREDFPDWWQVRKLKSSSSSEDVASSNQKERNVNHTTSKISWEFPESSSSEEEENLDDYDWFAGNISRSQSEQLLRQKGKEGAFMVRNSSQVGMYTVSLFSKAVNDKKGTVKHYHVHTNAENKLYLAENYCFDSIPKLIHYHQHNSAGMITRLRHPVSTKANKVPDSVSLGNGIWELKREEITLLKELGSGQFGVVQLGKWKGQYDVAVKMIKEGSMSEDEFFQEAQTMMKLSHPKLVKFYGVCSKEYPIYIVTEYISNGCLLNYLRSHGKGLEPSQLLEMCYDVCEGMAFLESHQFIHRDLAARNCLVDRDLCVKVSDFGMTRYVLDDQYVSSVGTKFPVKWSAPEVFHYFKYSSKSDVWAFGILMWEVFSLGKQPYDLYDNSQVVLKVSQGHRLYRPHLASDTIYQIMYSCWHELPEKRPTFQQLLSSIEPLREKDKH
BTK, sequence (Q06187 whole entry): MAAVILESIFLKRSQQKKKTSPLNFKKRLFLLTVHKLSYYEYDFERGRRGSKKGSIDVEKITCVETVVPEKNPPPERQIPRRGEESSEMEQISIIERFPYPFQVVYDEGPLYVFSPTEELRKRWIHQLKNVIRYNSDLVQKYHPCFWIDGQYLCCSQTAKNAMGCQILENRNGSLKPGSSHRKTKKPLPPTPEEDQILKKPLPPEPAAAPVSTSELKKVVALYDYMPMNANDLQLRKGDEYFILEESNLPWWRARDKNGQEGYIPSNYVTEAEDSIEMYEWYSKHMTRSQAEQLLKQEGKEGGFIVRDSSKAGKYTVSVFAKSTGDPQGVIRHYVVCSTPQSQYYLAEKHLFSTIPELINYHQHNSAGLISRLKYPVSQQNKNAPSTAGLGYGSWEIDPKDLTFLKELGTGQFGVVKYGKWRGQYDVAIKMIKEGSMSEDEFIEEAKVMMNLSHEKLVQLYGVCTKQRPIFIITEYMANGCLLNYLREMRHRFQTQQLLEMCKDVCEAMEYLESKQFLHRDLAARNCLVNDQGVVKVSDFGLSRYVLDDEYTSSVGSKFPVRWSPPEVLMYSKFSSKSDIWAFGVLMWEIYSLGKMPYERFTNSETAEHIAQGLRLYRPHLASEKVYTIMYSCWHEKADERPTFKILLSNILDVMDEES

Take `C=CC(=O)N1CCC(C2CCNn3c2nc(-c2ccc(Oc4ccccc4)cc2)c3C(N)=O)CC1` (single isomer, unassigned) [1b (peak 2)]: the IC50 in test [1] (TMD8, 72 hs) is 102 nM; in test [2], greater than 30000 nM; in test [3], 5240 nM; in test [4], 170 nM; in test [5] it was 53.9 nM; in test [6], 28.9 nM. In addition, in test [2], the “Selectivity Ratio (BTK and ITK)” value is greater than 1038. Also, the “Selectivity Ratio (BTK and EGFR)” value in test [4] is recorded as 5.87. Further, the “Selectivity Ratio (BTK and BMX)” value in test [5] is on record as 1.86.

On to `C=CC(=O)N1CCC(C2CCNn3c2nc(-c2ccc(Oc4ccccc4)cc2)c3C(N)=O)CC1` (stereo not shown) [Example 1, 8-(1-acryloylpiperidin-4-yl)-2-(4-phenoxyphenyl)-5,6,7,8-tetrahydroimidazo[1,2-b]pyridazine-3-carboxamide], for which the IC50 in test [1] (Homo sapiens, TMD8, TMD8, 72 hs) came out at 12.3 nM; in test [2], 13600 nM; in test [3] (Homo sapiens, HEK-293T), 573000 nM; in test [4], 89.6 nM; in test [5], 26.7 nM; in test [6], 4.6 nM. Moreover, the “Selectivity Ratio (BTK and ITK)” value in test [2] worked out at 2945. Further, the “Selectivity Ratio (BTK and EGFR)” value in test [4] is listed as 19.48. The “Selectivity Ratio (BTK and BMX)” value in test [5] turned out to be 5.80.

`CC#CC(=O)N1CCC(C2CCNn3c2nc(-c2ccc(Oc4ccccc4)cc2)c3C(N)=O)CC1` (stereo not shown) [Example 2, 8-[1-(1-Oxo-but-2-ynyl)-piperidin-4-yl]-2-(4-phenoxy-phenyl)-5,6,7,8-tetrahydro-imidazo[1,2-b]pyridazine-3-carboxamide] had an IC50 in test [6] of 76.4 nM.

As to `N#C/C(=C\C1CC1)C(=O)N1CCC(C2CCNn3c2nc(-c2ccc(Oc4ccccc4)cc2)c3C(N)=O)CC1` (stereo not shown) [Example 8, 8-[1-(2-Cyano-3-cyclopropyl-acryloyl)-piperidin-4-yl]-2-(4-phenoxy-phenyl)-5,6,7,8-tetrahydro-imidazo[1,2-b]pyridazine-3-carboxamide], the IC50 in test [6] was found to be 285 nM.

As to `C=CC(=O)N1CCC(C2CCNn3c2nc(-c2ccc(Oc4ccc(F)cc4)cc2)c3C(N)=O)CC1` (stereo not shown) [Example 12, 8-(1-acryloylpiperidin-4-yl)-2-(4-(4-fluorophenoxy)phenyl)-5,6,7,8-tetrahydroimidazo[1,2-b]pyridazine-3-carboxamide], half-maximal inhibition in test [6] (IC50) required 49.4 nM.

Regarding `CC#CC(=O)N1CCC(C2CCNn3c2nc(-c2ccc(Oc4ccc(F)cc4)cc2)c3C(N)=O)CC1` (stereo not shown) [Example 13, 8-(1-(but-2-ynoyl)piperidin-4-yl)-2-(4-(4-fluorophenoxy)phenyl)-5,6,7,8-tetrahydroimidazo[1,2-b]pyridazine-3-carboxamide], in test [6], the IC50 was 122 nM.

`NC(=O)c1c(-c2ccc(Oc3ccc(F)cc3)cc2)nc2n1NCCC2C1CCN(C(=O)/C=C/C(F)(F)F)CC1` (stereo not shown) [Example 14, (E)-2-(4-(4-fluorophenoxy)phenyl)-8-(1-(4,4,4-trifluorobut-2-enoyl)piperidin-4-yl)-5,6,7,8-tetrahydroimidazo[1,2-b]pyridazine-3-carboxamide]: the half-maximal inhibitory concentration (IC50) in test [6] amounted to 61.5 nM.

For the molecule `C=CC(=O)N1CCC(C2CCNn3c2nc(-c2ccc(Oc4ccc(OC)cc4)cc2)c3C(N)=O)CC1` (stereo not shown) [Example 15, 8-(1-acryloylpiperidin-4-yl)-2-(4-(4-methoxyphenoxy)phenyl)-5,6,7,8-tetrahydroimidazo[1,2-b]pyridazine-3-carboxamide], the IC50 in test [6] amounted to 42.6 nM.

Molecule `CC#CC(=O)N1CCC(C2CCNn3c2nc(-c2ccc(Oc4ccc(OC)cc4)cc2)c3C(N)=O)CC1` (stereo not shown) [Example 16, 8-(1-(but-2-ynoyl)piperidin-4-yl)-2-(4-(4-methoxyphenoxy)phenyl)-5,6,7,8-tetrahydroimidazo[1,2-b]pyridazine-3-carboxamide] yielded an IC50 in test [6] of 778 nM.

`COc1ccc(Oc2ccc(-c3nc4n(c3C(N)=O)NCCC4C3CCN(C(=O)/C=C/C(F)(F)F)CC3)cc2)cc1` (stereo not shown) [Example 17, (E)-2-(4-(4-methoxyphenoxy)phenyl)-8-(1-(4,4,4-trifluorobut-2-enoyl)piperidin-4-yl)-5,6,7,8-tetrahydroimidazo[1,2-b]pyridazine-3-carboxamide] returned an IC50 in test [6] of 212 nM.

`C=CC(=O)N1CC(C2CCNn3c2nc(-c2ccc(Oc4ccccc4)cc2)c3C(N)=O)C1` (stereo not shown) [Example 18, 8-(1-acryloylazetidin-3-yl)-2-(4-phenoxyphenyl)-5,6,7,8-tetrahydroimidazo[1,2-b]pyridazine-3-carboxamide]: 37.4 nM corresponded to half-maximal inhibition in test [6] (IC50).

`C=CC(=O)N1CCC(C2CCNn3c2nc(-c2ccc(Oc4ccccc4)cc2)c3C(N)=O)C1` (stereo not shown) [Example 21, 8-(1-acryloylpyrrolidin-3-yl)-2-(4-phenoxyphenyl)-5,6,7,8-tetrahydroimidazo[1,2-b]pyridazine-3-carboxamide]: in test [6], the half-inhibitory concentration (IC50) is 132 nM.

Take `C=CC(=O)Nc1ccccc1C1CCNn2c1nc(-c1ccc(Oc3ccccc3)cc1)c2C(N)=O` (stereo not shown) [Example 22, 8-(2-acrylamidophenyl)-2-(4-phenoxyphenyl)-5,6,7,8-tetrahydroimidazo[1,2-b]pyridazine-3-carboxamide]: in test [2], the IC50 was determined as 27900 nM; the “Selectivity Ratio (BTK and ITK)” value came out at 5160.6. Also, in test [4], the “Selectivity Ratio (BTK and EGFR)” value came out at 3.05; the IC50 was determined as 16.5 nM. For the same molecule, in test [5], the “Selectivity Ratio (BTK and BMX)” value was 11.94; the IC50 was determined as 64.5 nM. This molecule came in with an IC50 in test [6] of 5.4 nM.

Regarding `CN(C)C/C=C/C(=O)N1CCC(C2CCNn3c2nc(-c2ccc(Oc4ccccc4)cc2)c3C(N)=O)CC1` (stereo not shown) [Example 25, (E)-8-(1-(4-(dimethylamino)but-2-enoyl)piperidin-4-yl)-2-(4-phenoxyphenyl)-5,6,7,8-tetrahydroimidazo[1,2-b]pyridazine-3-carboxamide], inhibition in test [6] was half-maximal at 185 nM (IC50).

Turning to `C=CC(=O)N1CCC(C2CCn3c2nc(-c2ccc(Oc4ccccc4)cc2)c3C(N)=O)CC1` (stereo not shown) [Example 26, 7-(1-acryloylpiperidin-4-yl)-2-(4-phenoxyphenyl)-6,7-dihydro-5H-pyrrolo[1,2-a]imidazole-3-carboxamide], in test [2], the IC50 was determined as 4660 nM; the “Selectivity Ratio (BTK and ITK)” value was 555.2. Moreover, in test [4], the “Selectivity Ratio (BTK and EGFR)” value was 9.75; the IC50 was 81.9 nM. In test [5], the “Selectivity Ratio (BTK and BMX)” value is 3.70; the IC50 amounted to 31.1 nM. The same molecule came in with an IC50 in test [6] of 8.4 nM.

`C=CC(=O)N1CCC(C2CCNn3c2nc(-c2ccc(OC)cc2)c3C(N)=O)CC1` (stereo not shown) [Example 27, 8-(1-acryloylpiperidin-4-yl)-2-(4-methoxyphenyl)-5,6,7,8-tetrahydroimidazo[1,2-b]pyridazine-3-carboxamide]: in test [6], the midpoint of inhibition, the IC50, lay at 242 nM.

For the molecule `C=CC(=O)N1CCC(C2CCn3c2nc(-c2ccc(Oc4ccccc4)c(OC)c2)c3C(N)=O)CC1` (stereo not shown) [Example 28, 7-(1-acryloylpiperidin-4-yl)-2-(3-methoxy-4-phenoxyphenyl)-6,7-dihydro-5H-pyrrolo[1,2-a]imidazole-3-carboxamide], the IC50 in test [2] is greater than 30000 nM; in test [4], 382 nM; in test [5], 80.3 nM; in test [6], 10.7 nM. For the same molecule, the “Selectivity Ratio (BTK and ITK)” value in test [2] is given as greater than 2803.7. For the same molecule, the “Selectivity Ratio (BTK and EGFR)” value in test [4] is 35.66. For the same molecule, in test [5], the “Selectivity Ratio (BTK and BMX)” value is recorded as 7.51.

Consider `C=CC(=O)N1CCC(C2CCNn3c2nc(-c2ccc(Oc4ccccc4)c(OC)c2)c3C(N)=O)CC1` (stereo not shown) [Example 29, 8-(1-acryloylpiperidin-4-yl)-2-(3-methoxy-4-phenoxyphenyl)-5,6,7,8-tetrahydroimidazo[1,2-b]pyridazine-3-carboxamide], for which the IC50 in test [6] was 46.5 nM.

As usually defined, the IC50 is the point on the concentration scale where inhibition reaches its midpoint.
